Measurements from patent US9233095B2, “Small molecule RNase inhibitors and methods of use” (University of Rochester, priority 2011, dated 2016).
Where two headings read alike, the source gives them in different places.

Legend:
S. sanguis = experiment: CLSI broth microdilution MIC; assay type: cell-based; conditions: S. sanguis Isolate 1
From the text: (§1) In some examples, compounds can be further assayed using the Mueller Hinton (MH) broth antibacterial assay as specified by the Clinical and Laboratory Standards Institute MIC broth microdilution protocol (see Methods for Dilution Antimicrobial Susceptibility Tests for Bacteria That Grow Aerobically; Approved Standard, In The Clinical and Laboratory Standards Institute (CLSI, formerly NCCLS), 7th ed., January 2006, 26 (2), M7-A7; see also Performance Standards for Antimicrobial Susceptibility Testing; Eighteenth Informational Supplement, In The Clinical and Laboratory Standards Institute (CLSI, formerly NCCLS), January 2008, 28 (1), M100-S18).
(§2) With the exception of RN4220-derivatives, in vitro activities of RNPA1000 against bacteria were determined by the broth microdilution method according to the Clinical and Laboratory Standards Institute (CLSI) guidelines using cation adjusted Mueller-Hinton broth or MH broth supplemented with 5% lysed horse blood (for testing Streptotococcus spp.). Microtiter plates containing serial dilutions of RNPA1000 (0, 4, 8, 16, 32, 64, and 128 μg/ml) were inoculated with 10^5 colony forming units (CFU)/ml and incubated for 18 hr at 37° C. […] The MIC value for each S. aureus strain was determined to be the median score of replicate measurements (n=5). Wells containing concentrations of RNPA1000≧MIC were plated for minimal bactericidal measurement. Where possible, experiments with VRSA strains were performed in a laminar flow hood to minimize potential for equipment contamination. For RN4220 cells containing plasmid vector (pCN51), RnpA overproducing plasmid (pRNPA-S) or RnpA underproducing plasmid (pRNPA-A.S.) in vitro antimicrobial activity of RNPA1000 was performed by the microdilution method as described above, except that cells were grown in Tryptic Soy Broth medium supplemented with 2.5 μM CdCl2 and 0, 1, 2, 4, 8, 16, 32, 64, or 128 μg/ml RNPA1000. Time-kill assays were also performed to monitor the antimicrobial properties of RNPA1000 for S. aureus strain UAMS-1 in the absence and presence of 0.25, 0.5, 2, and 4 times the strain's MIC for oxacillin (1 μg/ml), rifampicin (0.5 μg/ml), vancomycin (2 μg/ml), or daptomycin (1 μg/ml). The indicated amount of RNPA1000 and/or commercial antibiotic were added to mid-exponential phase (2×10^8 cfu/ml) S. aureus strain UAMS-1 cells and incubated at 37° C. Aliquots were removed at 0, 2, 4, 8, and 24 hr post-antimicrobial challenge, serial diluted, and plated to enumerate resulting cfu/ml. All time-kill assays were repeated at least 3 times.

S. epidermidis = experiment: CLSI broth microdilution MIC; assay type: cell-based; conditions: Staphylococcus epidermidis
From the text: as §1, §2

S. agalactiae = experiment: CLSI broth microdilution MIC; assay type: cell-based; conditions: Streptococcus agalactiae
From the text: as §1, §2

S. aureus (VISA) = experiment: CLSI broth microdilution MIC; assay type: cell-based; conditions: Staphylococcus aureus
From the text: as §1, §2

S. aureus (MRSA) = experiment: CLSI broth microdilution MIC; assay type: cell-based; conditions: Staphylococcus aureus
From the text: as §1, §2

B. cereus = experiment: CLSI broth microdilution MIC; assay type: cell-based; conditions: Bacillus cereus; B. cereus Isolate 1
From the text: as §1, §2

S. pyogenes = experiment: CLSI broth microdilution MIC; assay type: cell-based; conditions: Streptococcus pyogenes; S. pyogenes Isolate 1
From the text: as §1, §2

S. aureus (VRSA) = experiment: CLSI broth microdilution MIC; assay type: cell-based; conditions: Staphylococcus aureus
From the text: as §1, §2

S. pneumoniae = experiment: CLSI broth microdilution MIC; assay type: cell-based; conditions: Streptococcus pneumoniae
From the text: as §1, §2

E. faecium = experiment: CLSI broth microdilution MIC; assay type: cell-based, Enterococcus faecium; conditions: for MIC: Enterococcus faecium
From the text: as §1, §2

E. faecium (VRE) = experiment: CLSI broth microdilution MIC; assay type: cell-based, Enterococcus faecium; conditions: for MIC: Enterococcus faecium
From the text: as §1, §2

RNase A = molecular target: T1, RNase A (Bos taurus, UniProt P61823); experiment: ribonuclease specificity test; assay type: biochemical; conditions: any concentration tested (0-750 μM)
T1 construct: purchased
From the text: (§3) In total, fourteen molecules inhibited the enzyme's RNA turnover activity by ≧50%. A gel-based secondary assay confirmed that five of these molecules were bona-fide inhibitors of RnpA-mediated RNA degradation (FIG. 3B).

S. aureus RNase J1 = molecular target: T2, S. aureus RNase J1 (Staphylococcus aureus, UniProt Q2FZG9); experiment: ribonuclease specificity test; assay type: biochemical; conditions: any concentration tested (0-750 μM)
T2 construct: hexahistidine-tag (N); made in house; host or cells: E. coli BL21 (DE3)
From the text: as §3

E. coli RNase HI = molecular target: T3, E. coli RNase HI (Escherichia coli, UniProt P0A7Y4); experiment: ribonuclease specificity test; assay type: biochemical; conditions: any concentration tested (0-750 μM)
T3 construct: purchased
From the text: as §3

RNase I = molecular target: T4, RNase I (Escherichia coli, UniProt P21338); experiment: ribonuclease specificity test; assay type: biochemical; conditions: any concentration tested (0-750 μM)
T4 construct: purchased
From the text: as §3

E. coli RNase III = E. coli RNase III (Escherichia coli, UniProt P0A7Y0); experiment: ribonuclease specificity test; assay type: biochemical; conditions: data not shown
From the text: as §3

E. coli = experiment: CLSI broth microdilution MIC; assay type: cell-based, Escherichia coli
From the text: as §1, §2

T3 sequence (P0A7Y4 whole entry): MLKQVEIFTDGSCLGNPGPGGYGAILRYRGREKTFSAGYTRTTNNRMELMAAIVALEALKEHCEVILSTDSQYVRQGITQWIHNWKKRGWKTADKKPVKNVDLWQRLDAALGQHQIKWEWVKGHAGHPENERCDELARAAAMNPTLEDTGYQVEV
E. coli RNase III, sequence (P0A7Y0 whole entry): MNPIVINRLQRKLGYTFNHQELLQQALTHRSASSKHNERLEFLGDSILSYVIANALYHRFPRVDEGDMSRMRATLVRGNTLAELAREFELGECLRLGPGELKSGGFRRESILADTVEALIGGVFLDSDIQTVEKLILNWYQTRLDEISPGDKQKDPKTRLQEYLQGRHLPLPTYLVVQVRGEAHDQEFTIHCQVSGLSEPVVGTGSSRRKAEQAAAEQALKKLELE
T4 sequence (P21338 24-268): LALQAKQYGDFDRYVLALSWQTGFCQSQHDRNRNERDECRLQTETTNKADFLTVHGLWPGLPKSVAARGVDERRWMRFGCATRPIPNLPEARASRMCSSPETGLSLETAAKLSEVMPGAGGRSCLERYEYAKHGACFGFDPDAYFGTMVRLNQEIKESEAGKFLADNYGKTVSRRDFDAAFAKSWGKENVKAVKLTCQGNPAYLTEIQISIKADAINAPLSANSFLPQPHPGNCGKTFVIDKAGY
T1 sequence (P61823 27-150): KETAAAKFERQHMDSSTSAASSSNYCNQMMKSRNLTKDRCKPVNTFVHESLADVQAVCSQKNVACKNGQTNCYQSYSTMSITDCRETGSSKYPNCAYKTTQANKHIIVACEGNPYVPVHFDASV

Cc1cc(/C=C(/C#N)C(=O)Nc2cccc(Br)c2)c(C)n1-c1ccc(C(=O)O)cc1 [RNPA1000]
26 µg/mL: MIC (S. aureus (MRSA); MRSA / USA100, strain USA100)
64 µg/mL: MIC (E. faecium; E. faecium Isolate 1, read-out: MIC) | MIC (E. faecium; E. faecium Isolate 2, read-out: MIC) | MIC (E. faecium; E. faecium Isolate 3, read-out: MIC) | MIC (E. faecium; E. faecium Isolate 4, read-out: MIC) | MIC (E. faecium; E. faecium Isolate 5, read-out: MIC) | MIC (E. faecium (VRE); E. faecium (VRE) Isolate 1) | MIC (E. faecium (VRE); E. faecium (VRE) Isolate 2) | MIC (E. faecium (VRE); E. faecium (VRE) Isolate 4)
> 64 µg/mL: MIC (E. coli; Escherichia coli, E. coli Isolate 1, read-out: MIC)
did not affect the activity: effect on RNase A activity (RNase A) | effect on S. aureus RNase J1 activity (S. aureus RNase J1) | effect on E. coli RNase HI activity (E. coli RNase HI) | effect on RNase I activity (RNase I)
32 µg/mL: MIC (S. agalactiae; S. agalactiae Isolate 2) | MIC (S. agalactiae; S. agalactiae Isolate 3) | MIC (S. agalactiae; S. agalactiae Isolate 4) | MIC (S. aureus (VISA); NRS 1 / VISA, strain VISA-NRS1) | MIC (S. aureus (VISA); VISA Isolate 4) | MIC (S. aureus (MRSA); MRSA / USA200, strain USA200) | MIC (S. aureus (MRSA); MRSA / USA600, strain USA600) | MIC (S. aureus (MRSA); MRSA / USA700, strain USA700) | MIC (S. aureus (MRSA); MRSA, strain USA900) | MIC (S. aureus (MRSA); MRSA, strain USA1100) | MIC (S. aureus (VRSA); strain VRSA-VRS10) | MIC (S. pneumoniae; S. pneumoniae Isolate 4) | MIC (E. faecium; E. faecium Isolate 5 + reserpine (efflux pump inhibitor)) | MIC (E. faecium (VRE); E. faecium (VRE) Isolate 3) | MIC (E. faecium (VRE); E. faecium (VRE) Isolate 5)
did not affect: effect on growth (E. coli)
mild activity: antimicrobial activity in words (E. faecium) | antimicrobial activity in words (E. faecium (VRE))
8 µg/mL: MIC (S. epidermidis; S. epidermidis Isolate 2) | MIC (S. epidermidis; S. epidermidis Isolate 3) | MIC (S. epidermidis; S. epidermidis Isolate 4) | MIC (S. epidermidis; S. epidermidis Isolate 5) | MIC (B. cereus) | MIC (S. pyogenes)
23 µg/mL: MIC (S. aureus (MRSA); MRSA / USA300, strain USA300 (USA300-0114)) | MIC (S. aureus (MRSA); MRSA / USA400, strain USA400) | MIC (S. aureus (MRSA); MRSA / USA500, strain USA500) | MIC (S. aureus (MRSA); MRSA / USA800, strain USA800)
500 to 750 µM: IC50 (E. coli RNase III)
>64 µg/mL: MIC (E. coli; E. coli Isolate 2) | MIC (E. coli; E. coli Isolate 3) | MIC (E. coli; E. coli Isolate 4) | MIC (E. coli; E. coli Isolate 5)
16 µg/mL: MIC (S. sanguis) | MIC (S. epidermidis; S. epidermidis Isolate 1) | MIC (S. agalactiae; S. agalactiae Isolate 1) | MIC (S. aureus (VISA); NRS 3 / VISA, strain VISA-NRS3) | MIC (S. aureus (VISA); VISA Isolate 3) | MIC (S. aureus (VISA); VISA Isolate 5) | MIC (S. aureus (VRSA); strain VRSA-VRS1) | MIC (S. pneumoniae; S. pneumoniae Isolate 1) | MIC (S. pneumoniae; S. pneumoniae Isolate 2) | MIC (S. pneumoniae; S. pneumoniae Isolate 3) | MIC (S. pneumoniae; S. pneumoniae Isolate 5)
29 µg/mL: MIC (S. aureus (MRSA); MRSA, strain USA1000)
